The text below walks through data of patent US20160362432A1 (priority 2014, published 2016).

This experiment addresses T1, Human factor D (Homo sapiens, UniProt P00746).
T1 construct: purified from human serum; purchased Complement Technology, Inc; host or cells: human serum (natural source)
The experiment can be described thus: biochemical.

T1 sequence (P00746 26-253): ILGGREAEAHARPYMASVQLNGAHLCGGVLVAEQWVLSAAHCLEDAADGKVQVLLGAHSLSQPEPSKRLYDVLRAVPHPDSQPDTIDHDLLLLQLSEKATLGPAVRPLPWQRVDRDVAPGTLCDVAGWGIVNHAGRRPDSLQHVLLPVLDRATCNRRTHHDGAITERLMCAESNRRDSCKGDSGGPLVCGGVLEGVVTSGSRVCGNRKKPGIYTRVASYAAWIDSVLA

The term IC50 denotes the midpoint of a concentration-inhibition curve. The molecule `CCOP(=O)(OCC)c1ccc2c(C(C)=O)cn(CC(=O)N3[C@@H]4CCC[C@@H]4C[C@H]3C(=O)NCc3cccc(Cl)c3F)c2c1` [Compound 5, diethyl 3-acetyl-1-(2-((2S,3aR,6aR)-2-(3-chloro-2-fluorobenzylcarbamoyl)hexahydrocyclopenta [b]pyrrol-1(2H)-yl)-2-oxoethyl)-1H-indol-6-ylphosphonate] displayed an IC50 of 1 to 10 µM.
